Laboratory results from ChEMBL document CHEMBL1150925, “Gibbilimbols A-D, cytotoxic and antibacterial alkenylphenols from Piper gibbilimbum” (J Nat Prod, 1998).
≈ marks a conversion by molar mass, not a printed value. Calls of active or inactive are those of the source. No cut-off for these calls is given here.

Tested on: KB
Experiment: Cytotoxicity against human KB cells
Assay type: functional
Conditions: read-out: ED50 (the source's name)

SMILES | EC50 [µg/mL]
CCCC/C=C/CCc1ccc(O)cc1 [GIBBILIMBOL D] | 2.1 (≈ 10.3 µM)
CCC/C=C/CCCc1ccc(O)cc1 [GIBBILIMBOL C] | 7.8 (≈ 38.2 µM)
CCCCCC/C=C/CCc1ccc(O)cc1 [GIBBILIMBOL B] | 3.9 (≈ 16.8 µM)
CCCCC/C=C/CCCc1ccc(O)cc1 [GIBBILIMBOL A] | 4.4 (≈ 18.9 µM)

Tested on: Bacillus cereus
Experiment: Antibacterial activity against Bacillus cereus after 24 hrs by broth microdilution method
Assay type: functional
Conditions: not given

SMILES | MIC [µg/mL]
CCCC/C=C/CCc1ccc(O)cc1 [GIBBILIMBOL D] | 2 (≈ 9.79 µM)
CCC/C=C/CCCc1ccc(O)cc1 [GIBBILIMBOL C] | 2 (≈ 9.79 µM)
CCCCCC/C=C/CCc1ccc(O)cc1 [GIBBILIMBOL B] | 4 (≈ 17.2 µM)
CCCCC/C=C/CCCc1ccc(O)cc1 [GIBBILIMBOL A] | 4 (≈ 17.2 µM)
O=C(N[C@H](CO)[C@H](O)c1ccc([N+](=O)[O-])cc1)C(Cl)Cl [CHLORAMPHENICOL] | 4 (≈ 12.4 µM)

Tested on: Pseudomonas aeruginosa
Experiment: Antibacterial activity against Pseudomonas aeruginosa at 60 ug/disk by paper disk diffusion technique
Assay type: functional, organism-based
Conditions: not given

SMILES | Activity
CCCC/C=C/CCc1ccc(O)cc1 [GIBBILIMBOL D] | inactive
CCC/C=C/CCCc1ccc(O)cc1 [GIBBILIMBOL C] | inactive
CCCCCC/C=C/CCc1ccc(O)cc1 [GIBBILIMBOL B] | inactive
CCCCC/C=C/CCCc1ccc(O)cc1 [GIBBILIMBOL A] | inactive

Tested on: not listed separately
Experiment: Toxicity in Artemia salina
Assay type: organism-based
Conditions: in vivo, read-out: LD50 (the source's name)

SMILES | LC50 [µg/mL]
CCCC/C=C/CCc1ccc(O)cc1 [GIBBILIMBOL D] | 5 (≈ 24.5 µM)
CCC/C=C/CCCc1ccc(O)cc1 [GIBBILIMBOL C] | 5.5 (≈ 26.9 µM)
CCCCCC/C=C/CCc1ccc(O)cc1 [GIBBILIMBOL B] | 4.9 (≈ 21.1 µM)
CCCCC/C=C/CCCc1ccc(O)cc1 [GIBBILIMBOL A] | 5.3 (≈ 22.8 µM)

Tested on: Staphylococcus epidermidis
Experiment: Antibacterial activity against Staphylococcus epidermidis at 60 ug/disk by paper disk diffusion technique
Assay type: functional
Conditions: read-out: IZ

SMILES | zone of inhibition at 60 µg/disc [mm]
CCCC/C=C/CCc1ccc(O)cc1 [GIBBILIMBOL D] | < 2
CCC/C=C/CCCc1ccc(O)cc1 [GIBBILIMBOL C] | < 2
CCCCCC/C=C/CCc1ccc(O)cc1 [GIBBILIMBOL B] | < 2
CCCCC/C=C/CCCc1ccc(O)cc1 [GIBBILIMBOL A] | < 2

Tested on: Bacillus cereus
Experiment: Antibacterial activity against Bacillus cereus at 60 ug/disk by paper disk diffusion technique
Assay type: functional
Conditions: read-out: IZ

SMILES | zone of inhibition at 60 µg/disc [mm]
CCCC/C=C/CCc1ccc(O)cc1 [GIBBILIMBOL D] | < 2
CCC/C=C/CCCc1ccc(O)cc1 [GIBBILIMBOL C] | < 2
CCCCCC/C=C/CCc1ccc(O)cc1 [GIBBILIMBOL B] | < 2
CCCCC/C=C/CCCc1ccc(O)cc1 [GIBBILIMBOL A] | < 2

Tested on: Staphylococcus epidermidis
Experiment: Antibacterial activity against Staphylococcus epidermidis after 24 hrs by broth microdilution method
Assay type: functional
Conditions: not given

SMILES | MIC [µg/mL]
CCCC/C=C/CCc1ccc(O)cc1 [GIBBILIMBOL D] | 2 (≈ 9.79 µM)
CCC/C=C/CCCc1ccc(O)cc1 [GIBBILIMBOL C] | 2 (≈ 9.79 µM)
CCCCCC/C=C/CCc1ccc(O)cc1 [GIBBILIMBOL B] | 2 (≈ 8.61 µM)
CCCCC/C=C/CCCc1ccc(O)cc1 [GIBBILIMBOL A] | 4 (≈ 17.2 µM)
O=C(N[C@H](CO)[C@H](O)c1ccc([N+](=O)[O-])cc1)C(Cl)Cl [CHLORAMPHENICOL] | 8 (≈ 24.8 µM)
